Data set [1] is described as follows: Compound solubility in PBS (pH 7.4), LC-MS/MS. The procedure:
• Test concentration: 100 μM (1% of DMSO) • Test systems: PBS (pH 7.4) • Incubation condition: shaken (1000 rpm) for 1 h at room temperature • Sample size: Duplicates (n=2) • Bioanalytical method: LC-MS/MS

The subject of data set [2] is C57BL/6 Diet Induced Obese (DIO) mice. As to the kind of experiment: Oral (P.O.) administration study in DIO mice: in vivo activity, body weights. Set-up: species or system mouse. The settings on record: for change in vivo at 2 mg/kg: Mus musculus, po, difference of group mean, read-out: Body weight, %-Diff. The text has this:
The purpose of this study was to assess test articles in the Diet Induced Obese (DIO) mouse.
Male C57BL/6 Diet Induced Obese (DIO) mice were received from Taconic. Animals were acclimated to housing conditions for at least 1 week prior to vehicle acclimation dosing. Animals were acclimated to oral gavage dosing with vehicle once daily for Days 11 through 14 of the predose phase.
At initiation of dosing, animals were 21 to 22 weeks old, and their body weights ranged from 29.8 to 40.1 g.
Dose formulations were administered by oral gavage once daily for 10 days at a dose volume of 2 mL/kg. Doses were based on the most recently recorded scheduled body weight.
Body weights were recorded daily on Days 11 through 14 of the predose phase. Body weights were collected for all animals daily during the dosing phase prior to dosing.
Descriptive statistics (n, mean, standard error of the mean, standard deviation) were completed. Additionally, one-way analysis of variance followed by Dunnett's post-hoc test were performed on body weight (cumulative body weight change), glucose (glucose percent change), and food consumption (cumulative food consumption). Area under the curve (for body weight, cumulative body weight change, daily body weight change, and food consumption) was computed for treatment groups. An appropriate comparison test, such as one-way analysis of variance and Dunnett's, was performed on the group means for the area under the curve computations. Any additional statistical analysis and interpretation of the results were the responsibility of the sponsor.

The mark [3] stands for this setting: PBS (pH 7.4), pH 7.4, aqueous buffer, kinetic from dmso stock, Solubility (μM) Mean, Table 6-B, test concentration 100 μM (1% of DMSO), shaken (1000 rpm) 1 h at room temperature, n = 2.
Setting [4] is: PBS (pH 7.4), pH 7.4, aqueous buffer, kinetic from dmso stock, Solubility (μM), Table 6-D.
Setting [5] is: pH 7.4, aqueous buffer, kinetic from dmso stock, Solubility (μM) Mean, Table 6-B; PBS (pH 7.4), test concentration 100 μM (1% of DMSO), shaken (1000 rpm) 1 h at room temperature, n = 2.
Setting [6] is: pH 7.4, aqueous buffer, kinetic from dmso stock, Solubility (μM), Table 6-D; PBS (pH 7.4).

Values after ≈ are worked out from the molar mass of the structure shown. Where two headings read alike, the source gives them in different places.

As a reminder, the solubility is the concentration that dissolves in the medium under given conditions. Low readings indicate a poorly soluble substance, high ones a readily soluble substance. With `CC1=C(O)C(=O)C=C2C1=CC=C1[C@@]2(C)CC[C@@]2(C)[C@@H]3C[C@](C)(NS(C)(=O)=O)CC[C@]3(C)CC[C@]12C` [ERX1175], the solubility at 1 h in data set [1] (setting [3]) and in data set [1] (setting [4]) was 4.03 µM (≈ 2.01 µg/mL) each time.

For `C=CCOC1=C(C)C2=CC=C3[C@@](C)(CC[C@@]4(C)[C@@H]5C[C@](C)(C(N)=O)CC[C@]5(C)CC[C@]34C)C2=CC1=O` [ERX1124], the solubility at 1 h in data set [1] (setting [3]) was 1.04 µM (≈ 0.509 µg/mL); in data set [1] (setting [4]), 1.03 µM (≈ 0.507 µg/mL).

For the compound `COC(=O)[C@]1(C)CC[C@]2(C)CC[C@]3(C)C4=CC=C5C(=CC(=O)C(O)=C5C)[C@]4(C)CC[C@@]3(C)[C@@H]2C1` [ERX1074], the solubility at 1 h in data set [1] (setting [5]) and in data set [1] (setting [6]) was 4.19 µM (≈ 1.95 µg/mL) throughout.

Consider `CC(=O)Oc1cc2c(c(C)c1OC(C)=O)C(SC(C)=O)C=C1[C@@]2(C)CC[C@@]2(C)[C@@H]3C[C@](C)(C(=O)O)CC[C@]3(C)CC[C@]12C` (stereo partly drawn) [ERX1076], for which the solubility at 1 h in data set [1] (setting [3]) stood at 6.44 µM (≈ 3.93 µg/mL); in data set [1] (setting [4]), 6.43 µM (≈ 3.93 µg/mL).

`CC1=C(O)C(=O)C=C2C1=CC=C1[C@@]2(C)CC[C@@]2(C)[C@@H]3C[C@](C)(CN4CCOCC4)CC[C@]3(C)CC[C@]12C` [ERX1116]: the solubility at 1 h in data set [1] (setting [3]) and in data set [1] (setting [4]) was 0.47 µM (≈ 0.238 µg/mL) each time.

For the compound `CC(=O)N1CCN(c2ccc(OCC3COC(Cn4ccnc4)(c4ccc(Cl)cc4Cl)O3)cc2)CC1` (stereo not drawn) [Ketoconazole], the solubility at 1 h was determined as 35.7 µM (≈ 19 µg/mL) in data set [1] (setting [3]); 35.2 µM (≈ 18.7 µg/mL) in data set [1] (PBS (pH 7.4), pH 7.4, aqueous buffer, kinetic from dmso stock, Solubility (μM) Mean, Table 6-C, test concentration 100 μM (1% of DMSO), shaken (1000 rpm) 1 h at room temperature, n = 2); 35.7 µM (≈ 19 µg/mL) in data set [1] (setting [4]).

As to `CC1=C(O)C(=O)C=C2C1=CC=C1[C@@]2(C)CC[C@@]2(C)[C@@H]3C[C@](C)(C(=O)O)CC[C@]3(C)CC[C@]12C` [ERX1000], the solubility in data set [1] (setting [5]) and in data set [1] (setting [6]) was 3.89 µM (≈ 1.75 µg/mL) throughout. Further, the “Body weight %-Diff” value in data set [2] (2 mg/kg oral gavage once daily, dosing phase Day 1) is given as 0%; in data set [2] (2 mg/kg oral gavage once daily, dosing phase Day 2) it was −1%; in data set [2] (2 mg/kg oral gavage once daily, dosing phase Day 3), −2%; in data set [2] (2 mg/kg oral gavage once daily, dosing phase Day 4), −3%; in data set [2] (2 mg/kg oral gavage once daily, dosing phase Day 5), −5%; in data set [2] (2 mg/kg oral gavage once daily, dosing phase Day 6) it was −6%. Moreover, the “Body weight, Mean” value in data set [2] (2 mg/kg oral gavage once daily, dosing phase Day 1, N 5) worked out at 34.2 g; in data set [2] (2 mg/kg oral gavage once daily, dosing phase Day 2, N 5), 34.0 g; in data set [2] (2 mg/kg oral gavage once daily, dosing phase Day 3, N 5), 33.1 g; in data set [2] (2 mg/kg oral gavage once daily, dosing phase Day 4, N 5) it was 32.5 g; in data set [2] (2 mg/kg oral gavage once daily, dosing phase Day 5, N 5) it was 32.1 g; in data set [2] (2 mg/kg oral gavage once daily, dosing phase Day 6, N 5), 31.4 g. Besides, the “Body weight, Mean” value in data set [2] (Day 7, DSNG phase, 2 mg/kg, male, N=5) was determined as 30.6 g; in data set [2] (Day 8, DSNG phase, 2 mg/kg, male, N=5) it was 30.4 g; in data set [2] (Day 9, DSNG phase, 2 mg/kg, male, N=5), 30.3 g; in data set [2] (Day 10, DSNG phase, 2 mg/kg, male, N=5), 30.0 g; in data set [2] (Day 11, DSNG phase, 2 mg/kg, male, N=5), 29.1 g. Also, the change in vivo at 2 mg/kg in data set [2] (168 h, Day 7, DSNG phase, 2 mg/kg, male) is -9%; in data set [2] (192 h, Day 8, DSNG phase, 2 mg/kg, male) it was -10%; in data set [2] (216 h, Day 9, DSNG phase, 2 mg/kg, male) it was -9%; in data set [2] (240 h, Day 10, DSNG phase, 2 mg/kg, male), -10%; in data set [2] (264 h, Day 11, DSNG phase, 2 mg/kg, male), -15%.

In the case of `CCCOC1=C(C)C2=CC=C3[C@@](C)(CC[C@@]4(C)[C@@H]5C[C@](C)(C(N)=O)CC[C@]5(C)CC[C@]34C)C2=CC1=O` [ERX1121], the solubility at 1 h in data set [1] (setting [3]) and in data set [1] (setting [4]) was 1.55 µM (≈ 0.762 µg/mL) in each case.
